Assays:
SSTR1 = SSTR1 (Homo sapiens (Human), UniProt P30872); test: SSTR1 I-125 somatostatin competition binding assay for selectivity versus SSTR4 (membranes from CHO-K1 cells overexpressing SSTR1); conditions: for SSTR1 Binding pIC50: competition with I-125 labeled somatostatin, CHO-K1 SSTR1 membranes;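 as to all read-outs here: Filter-based radioligand binding, bound label counted by scintillation after 60 min incubation at room temperature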
Protocol: Membranes from CHO-K1 cells overexpressing SSTR1 are purchased from Perkin Elmer (catalog number ES-520-M400UA). […] Then 10 μg of SSTR1 membranes in 50 μL assay buffer are added per well. The plate is incubated for 60 minutes at room temperature. […] The contents of the assay plate are transferred to filters with a TomTech harvester and washed 5 times with 20 mM HEPES, 100 mM NaCl. […] The scintillator sheets are melted to the filters using a heat block. The filters are then read in a MicroBeta scintillation counter. Binding Ki curves are generated using Activity Base for Screening Data Management and the results are reported as pIC50.

SSTR4 [1] = target: T1, SSTR4 (Homo sapiens (Human), UniProt P31391); test: SSTR4 I-125 somatostatin competition binding assay (membranes from CHO-K1 cells overexpressing SSTR4); conditions: competition with I-125 labeled somatostatin; for IC50: read-out: SSTR4 Binding pIC50 (converted)
Protocol: Membranes from CHO-K1 cells overexpressing SSTR4 are purchased from Perkin Elmer (catalog number ES-524-M400UA). Test compounds are suspended in DMSO and then diluted in assay buffer (25 mM HEPES pH 7.4, 10 mM MgCl2, 1 mM CaCl2), 0.5% BSA) plus 0.2 nM I-125 labeled somatostatin (Perkin Elmer catalog number NEX389). […] Then 1 μg of SSTR4 membranes in 50 μL assay buffer are added per well. The Plate is incubated for 60 minutes at room temperature. FilterMat A filters (Perkin Elmer catalog number 1450-421) are pre-soaked in 0.5% PEI (Sigma catalog number P3143). The contents of the assay plate are transferred to filters with a TomTech harvester and washed 5 times with 20 mM HEPES, 100 mM NaCl. The filters are dried in a microwave oven then transferred to sample bag containing a scintillator sheet (Perkin Elmer catalog number 1450-441). The scintillator sheets are melted to filters using a heat block. The filters are then read in a MicroBeta scintillation counter. Binding Ki curves are generated using Activity Base for Screening Data Management and the results are reported as pIC50.

SSTR4 [2] = target: T1, SSTR4; test: Inhibition of forskolin stimulated cAMP in CHO-K1 cells overexpressing SSTR4; assay type: cell-based; conditions: for EC50: read-out: SSTR4 Activity pEC50 (converted)
Outline: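 Read-out is a HTRF LANCE Ultra cAMP competition using Eu-labelled streptavidin and biotin-cAMP, incubated 60 min at room temperature. It followed a 30 min room-temperature exposure of Kreb's Ringer-washed cells to compound plus forskolin. Potency is expressed as pEC50.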

SSTR1, sequence (P30872 whole entry): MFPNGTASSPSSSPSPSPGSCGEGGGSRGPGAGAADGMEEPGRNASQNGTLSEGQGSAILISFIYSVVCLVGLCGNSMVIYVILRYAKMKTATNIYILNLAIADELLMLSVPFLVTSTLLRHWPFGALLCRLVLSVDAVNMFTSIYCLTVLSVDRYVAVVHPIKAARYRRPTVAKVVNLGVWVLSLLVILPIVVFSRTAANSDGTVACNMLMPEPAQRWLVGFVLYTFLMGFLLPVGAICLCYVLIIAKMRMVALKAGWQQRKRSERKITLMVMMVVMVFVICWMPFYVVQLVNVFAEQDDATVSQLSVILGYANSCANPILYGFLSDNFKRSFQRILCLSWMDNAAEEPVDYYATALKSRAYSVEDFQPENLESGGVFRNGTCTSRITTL
T1 sequence (P31391 whole entry): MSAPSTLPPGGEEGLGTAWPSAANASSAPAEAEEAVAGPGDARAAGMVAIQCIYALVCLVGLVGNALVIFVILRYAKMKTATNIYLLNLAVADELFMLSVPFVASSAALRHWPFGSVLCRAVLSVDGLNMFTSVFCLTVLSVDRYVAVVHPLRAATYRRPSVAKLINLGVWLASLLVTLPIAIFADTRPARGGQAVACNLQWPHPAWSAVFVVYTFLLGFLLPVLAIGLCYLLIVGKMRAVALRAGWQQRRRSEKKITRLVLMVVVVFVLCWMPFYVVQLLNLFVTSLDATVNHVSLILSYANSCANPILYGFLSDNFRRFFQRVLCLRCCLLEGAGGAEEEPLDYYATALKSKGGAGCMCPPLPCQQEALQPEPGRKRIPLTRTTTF

| IC50 (SSTR1) | IC50 (SSTR4 [1]) | EC50 (SSTR4 [2]) | SMILES | SSTR1 Binding pIC50 (SSTR1) | SSTR4 Binding pIC50 (SSTR4 [1]) | SSTR4 Activity pEC50 (SSTR4 [2]) |
| --- | --- | --- | --- | --- | --- | --- |
| 12600 nM | 794 nM | 31.6 nM | Cc1cccnc1OCC(C)(C)C(=O)N[C@@H]1CN(C)C[C@H]1C (racemic) [Example 182, N-(trans-1,4-dimethylpyrrolidin-3-yl)-2,2-dimethyl-3-((3-methylpyridin-2-yl)oxy)propanamide] | – | – | – |
| – | – | – | Cc1ccccc1OCC(C)(C)C(=O)NC1CCN(C)CC1 [Example 76, 2,2-dimethyl-N-(1-methylpiperidin-4-yl)-3-(o-tolyloxy)propanamide] | 4.7 | 6.7 | 7.7 |
| – | – | – | CN1C[C@@H](NC(=O)C(C)(C)COc2ncccc2C2CC2)[C@H](c2cnn(C)c2)C1 (relative stereo) [Example 22, trans-3-((3-cyclopropylpyridin-2-yl)oxy)-2,2-dimethyl-N-(1-methyl-4-(1-methyl-1H-pyrazol-4-yl)pyrrolidin-3-yl)propanamide] | 6.0 | 7.0 | 7.9 |
| 794 nM | 50.1 nM | 1.58 nM | CN1CC[C@@H](NC(=O)C(C)(C)COc2ncccc2C(F)(F)F)[C@H](c2cnn(C(F)F)c2)C1 (racemic) [Example 125, trans-N-(3-(1-(difluoromethyl)-1H-pyrazol-4-yl)-1-methylpiperidin-4-yl)-2,2-dimethyl-3-((3-(trifluoromethyl)pyridin-2-yl)oxy)propanamide] | – | – | – |
| – | – | – | C[C@H]1CN(C)CC[C@@H]1NC(=O)C(C)(C)COc1ccccc1F [Example 202, N-((3S,4S)-1,3-dimethylpiperidin-4-yl)-3-(2-fluorophenoxy)-2,2-dimethylpropanamide] | 5.0 | 7.0 | 7.1 |
| – | – | – | CCc1ccccc1OCC(C)(C)C(=O)NC1CCN(C)CC1 [Example 72, 3-(2-ethylphenoxy)-2,2-dimethyl-N-(1-methylpiperidin-4-yl)propanamide] | 4.8 | 7.1 | 8.1 |
| – | – | – | CN1CC[C@@H](NC(=O)C(C)(C)COc2ccccc2C2CC2)C1 [Example 71, (R)-3-(2-cyclopropylphenoxy)-2,2,-dimethyl-N-(1-methylpyrrolidin-3-yl)propanamide] | 5.3 | 7.3 | 8.3 |
| – | – | – | Cc1nn(C)cc1[C@@H]1CN(C)C[C@H]1NC(=O)C(C)(C)COc1ncccc1OC(F)(F)F (relative stereo) [Example 29, trans-N-(4-(1,3-dimethyl-1H-pyrazol-4-yl)-1-methylpyrrolidin-3-yl)-2,2-dimethyl-3-((3-(trifluoromethoxy)pyridin-2-yl)oxy)propanamide] | 6.4 | 7.4 | 8.4 |
| – | – | – | C[C@@H]1C[C@H](NC(=O)C(C)(C)COc2ncccc2C2CC2)CCN1C [Example 147, 3-((3-cyclopropylpyridin-2-yl)oxy)-N-((2R,4R)-1,2-dimethylpiperidin-4-yl)-2,2-dimethylpropanamide] | 5.3 | 7.5 | 8.6 |
| – | – | – | C[C@H]1C[C@@H](NC(=O)C(C)(C)COc2ncccc2OC(F)(F)F)CCN1C [Example 152, N-((2S,4S)-1,2-dimethylpiperidin-4-yl)-2,2-dimethyl-3-((3-(trifluoromethoxy)pyridin-2-yl)oxy)propanamide] | 4.6 | 6.6 | 7.0 |
| 39800 nM | 2000 nM | 12.6 nM | Cc1ncccc1[C@@H]1CNCC[C@H]1N(C)C(=O)C(C)(C)COc1ncccc1C(F)(F)F (racemic) [Example 172, N,2,2-trimethyl-N-(trans-3-(2-methylpyridin-3-yl)piperidin-4-yl)-3-((3-(trifluoromethyl)pyridin-2-yl)oxy)propanamide] | – | – | – |
| – | – | – | CCc1ccccc1OCC(C)(C)C(=O)NC1CCN(CC(=O)c2ccc(Cl)cc2)CC1 [Example 104, N-(1-(2-(4-chlorophenyl)-2-oxoethyl)piperidin-4-yl)-3-(2-ethylphenoxy)-2,2-dimethylpropanamide] | 4.8 | 8.0 | 9.2 |
| – | – | – | Cc1ccccc1[C@@H]1CNCC[C@@H]1N(C)C(=O)C(C)(C)COc1ncccc1C(F)(F)F (relative stereo) [Example 156, N,2,2-trimethyl-N-(cis-3-(o-tolyl)piperidin-4-yl)-3-((3-(trifluoromethyl)pyridin-2-yl)oxy)propanamide] | 4.6 | 6.4 | 7.2 |
| – | – | – | CN1CC[C@H](NC(=O)C(C)(C)COc2ncccc2C(F)(F)F)[C@@H](F)C1 [Example 117, N-((3S,4S)-3-fluoro-1-methylpiperidin-4-yl)-2,2-dimethyl-3-((3-(trifluoromethyl)pyridin-2-yl)oxy)propanamide] | 4.5 | 6.7 | 7.6 |
| – | – | – | C[C@H]1CNCC[C@@H]1NC(=O)C(F)(F)COc1ncccc1C1CC1 [Example 209, 3-((3-cyclopropylpyridin-2-yl)oxy)-2,2-difluoro-N-((3S,4S)-3-methylpiperidin-4-yl)propanamide] | 4.9 | 7.6 | 9.2 |
| – | – | – | CN1C[C@H](NC(=O)C(C)(C)COc2ncccc2C(F)(F)F)C2(CC2)C1 [Example 148, (R)-2,2-dimethyl-N-(5-methyl-5-azaspiro[2.4]heptan-7-yl)-3-((3-(trifluoromethyl)pyridin-2-yl)oxy)propanamide] | 5.8 | 7.4 | 8.1 |
| – | – | – | CN1CCC(NC(=O)C(C)(C)COc2ccccc2C(F)(F)F)CC1 [Example 64, 2,2-dimethyl-N-(1-methylpiperidin-4-yl)-3-(2-(trifluoromethyl)phenoxy)propanamide] | 5.1 | 7.0 | 7.9 |
| – | – | – | Cc1cccnc1OCC(C)(C)C(=O)N[C@@H]1CN(C)C[C@H]1c1cn(C)nc1C (relative stereo) [Example 23, trans-N-(4-(1,3-dimethyl-1H-pyrazol-4-yl)-1-methylpyrrolidin-3-yl)-2,2-dimethyl-3-((3-methylpyridin-2-yl)oxy)propanamide] | 5.8 | 6.6 | 8.0 |
| – | – | – | CN1CCC(NC(=O)C(C)(C)COc2ncccc2OC(F)(F)F)C2(CC2)C1 (stereo not drawn) [Example 119, 2,2-dimethyl-N-(5-methyl-5-azaspiro[2.5]octan-8-yl)-3-((3-(trifluoromethoxy)pyridin-2-yl)oxy)propanamide] | 5.0 | 7.3 | 9.0 |
| – | – | – | CN1CC(NC(=O)C(C)(C)COc2ncccc2C(F)(F)F)C2(CC2)C1 (stereo not drawn) [Example 138, 2,2-dimethyl-N-(5-methyl-5-azaspiro[2.4]heptan-7-yl)-3-((3-(trifluoromethyl)pyridin-2-yl)oxy)propanamide] | 5.7 | 7.2 | 8.0 |
| – | – | – | Cc1cccnc1OCC(C)(C)C(=O)N[C@H]1CCN(C)C[C@@H]1C [Example 143, N-((3S,4S)-1,3-dimethylpiperidin-4-yl)-2,2-dimethyl-3-((3-methylpyridin-2-yl)oxy)propanamide] | 4.8 | 6.9 | 7.9 |

Source: US11045457B2, “Piperidinyl-3-(aryloxy)propanamides and propanoates” (priority 2018, dated 2021)
